Laboratory results reported in US20240041976A1, “COMPOSITION AND USE” (priority 2020, published 2024).
Like-named read-outs stand apart in the source and are kept apart here. No end group written: not given here.

Tests used:
MRSA USA-300 = assay: AAMP assay and checkerboard synergy; format: cell-based, Staphylococcus aureus; settings: for MIC: Staphylococcus aureus, 24 h, read-out: MIC, single antimicrobial
Protocol: (§1) Antimicrobial activity was measured using the AAMP assay (Wiegand et al., 2008, Nat. Protoc., Vol. 3(2), p 163-175).
(§2) Synergy testing was done with a microtiter plate checkerboard assay as previously described (Orhan et al., 2005, J. Clin. Microbiol., Vol. 43(1), p 140-143). Briefly, equal amounts of antimicrobial A were applied on microtiter plate 1 in wells A1-H1 and then diluted two-fold to wells 2-12. Similarly, equal amounts of antimicrobial B were applied on microtiter plate 2 in wells A1-A12 and diluted two-fold in wells B-H. Volumes of 50 μl of antimicrobial A from each well of microtiter plate 1 were transferred into microtiter plate 3, except for wells H1-H12. Similarly, the same volumes were transferred from microtiter plate 2 into plate 3, except for wells A1-A8. A 100 μl volume of 25 times diluted ON bacterial culture of MRSA was transferred into each well of plate 3. A 50 μl volume of pure broth was added into each well in lines H1-H12 and A1-A8 which were used to estimate MIC values of pure substances (blank).
(§3) Three-component synergy was assessed by mixing the three components (100 μg of PenG, 50 μg of GarKS and 2.5 μg of MP1) into one well of a microtiter plate, compared with activity of individual antimicrobials on the same plate. The fractional inhibition concentration (FIC) which was used to define synergy was calculated as set forth in Example 1.

MRSA ATCC 33591-lux = assay: AAMP assay and checkerboard synergy; format: cell-based, Staphylococcus aureus; settings: for MIC: Staphylococcus aureus, 24 h, read-out: MIC, single antimicrobial
Protocol: as §1, §2, §3

MRSA 43484 = assay: AAMP assay and checkerboard synergy; format: cell-based, Staphylococcus aureus; settings: for MIC: Staphylococcus aureus, 24 h, read-out: MIC, single antimicrobial
Protocol: as §1, §2, §3

[1] = tested on: three MRSA strains (ATCC33591-lux, USA-300 and MRSA 43484); assay: AAMP assay and checkerboard synergy, summary; format: cell-based, Staphylococcus aureus; settings: for MIC: Staphylococcus aureus, 24 h, read-out: MIC, single antimicrobial; for synergy with GarKS: checkerboard assay
Protocol: as §2, with “Briefly,” for “Synergy testing was done with a microtiter plate checkerboard assay as previously described (Orhan et al., 2005, J. Clin. Microbiol., Vol. 43(1), p 140-143). Briefly,”, “A 100 μl volume of 25 times diluted ON bacterial culture of MRSA was transferred into each well of plate 3.” left out
Three-component synergy was assessed by mixing the three components (100 μg of PenG, 50 μg of GarKS and 2.5 μg of MP1) into one well of a microtiter plate, compared with activity of individual antimicrobials on the same plate.

[2] = tested on: S. pseudintermedius MRSP 45; assay: microbe, parasite or virus in culture; format: cell-based, Staphylococcus pseudintermedius; settings: for MIC: Staphylococcus pseudintermedius, read-out: MIC, single component
Protocol: as §1, §2
(§4) Antimicrobial activity was measured using the AAMP assay as described in Example 2.
(§5) Synergy testing was performed as in Example 2.

S. aureus LMG3263 = assay: AAMP assay (MIC), single components and formulation mixture; format: cell-based, Staphylococcus aureus
Protocol: as §1, §3

S. aureus LMG3271 = assay: as above; format: cell-based, Staphylococcus aureus; settings: Staphylococcus aureus, LMG3271, 24 h; read-out: MIC, single component
Protocol: as §1, §3

S. aureus LMG3255 = assay: as above; format: cell-based, Staphylococcus aureus
Protocol: as §1, §3

S. aureus LMG3258 = assay: as above; format: cell-based, Staphylococcus aureus; settings: Staphylococcus aureus, LMG3258, 24 h; read-out: MIC, single component
Protocol: as §1, §3

S. aureus LMG3265 = assay: as above; format: cell-based, Staphylococcus aureus; settings: Staphylococcus aureus, LMG3265, 24 h; read-out: MIC, single component
Protocol: as §1, §3

S. aureus LMG3307 = assay: as above; format: cell-based, Staphylococcus aureus; settings: Staphylococcus aureus, LMG3307, 24 h; read-out: MIC, single component
Protocol: as §1, §3

S. aureus LMG3314 = assay: as above; format: cell-based, Staphylococcus aureus; settings: Staphylococcus aureus, LMG3314, 24 h; read-out: MIC, single component
Protocol: as §1, §3

S. aureus LMG3264 = assay: as above; format: cell-based, Staphylococcus aureus
Protocol: as §1, §3

S. aureus LMG3242 = assay: as above; format: cell-based, Staphylococcus aureus
Protocol: as §1, §3

S. aureus LMG3266 = assay: as above; format: cell-based, Staphylococcus aureus
Protocol: as §1, §3

S. aureus LMG3322 = assay: as above; format: cell-based, Staphylococcus aureus; settings: Staphylococcus aureus, LMG3322, 24 h; read-out: MIC, single component
Protocol: as §1, §3

S. aureus LMG3328 = assay: as above; format: cell-based, Staphylococcus aureus; settings: Staphylococcus aureus, LMG3328, 24 h; read-out: MIC, single component
Protocol: as §1, §3

S. aureus LMG3026 = assay: as above; format: cell-based, Staphylococcus aureus; settings: Staphylococcus aureus, LMG3026, 24 h; read-out: MIC, single component
Protocol: as §1, §3

MRSA ATCC 33591 = assay: microbe, parasite or virus in culture; format: cell-based, Staphylococcus aureus; settings: for MIC: Staphylococcus aureus, 24 h, read-out: MIC, single antimicrobial
Protocol: as §1, §2, §4, §5

[3] = Staphylococcus aureus, LMG3263, 24 h; read-out: MIC, single component
[4] = Staphylococcus aureus, LMG3255, 24 h; read-out: MIC, single component
[5] = Staphylococcus aureus, LMG3264, 24 h; read-out: MIC, single component

Row | Compound | MIC of the antimicrobial in comb. with GarKS (MRSA USA-300; MRSA USA-300) | MIC of the antimicrobial in comb. with GarKS (MRSA ATCC 33591-lux; MRSA ATCC 33591-lux) | MIC of the antimicrobial in comb. with GarKS (MRSA 43484; MRSA 43484) | MIC ([2]; MRSP45, MRSP 45, 24 h, Table 8) | MIC (S. aureus LMG3271) | MIC (S. aureus LMG3265) | MIC (S. aureus LMG3307) | MIC (S. aureus LMG3322) | MIC (S. aureus LMG3026) | MIC of MP1 in comb. with the labelled antimicrobial (MRSA ATCC 33591) | MIC of the labelled antimicrobial in comb. with MP1 (MRSA ATCC 33591) | MIC (MRSA ATCC 33591) | further results
1 | CC1(C)S[C@@H]2[C@H](NC(=O)[C@H](N)c3ccccc3)C(=O)N2[C@H]1C(=O)O [Amp, Ampicillin] | 16 µg/mL | 16 µg/mL | 16 µg/mL | – | – | – | – | – | – | – | – | – | MIC (MRSA USA-300; MRSA USA-300): < 2500 µg/mL; MIC (MRSA ATCC 33591-lux): < 2500 µg/mL; MIC (MRSA 43484; MRSA 43484): < 2500 µg/mL; MIC of the antimicrobial in comb. with GarKS ([1]; All three strains): 16 µg/mL; MIC of the component when combined ([1]; GarKS with Amp or PenG): 16 µg/mL; MIC ([1]; All three strains): > 2500 µg/mL; synergy with GarKS [1]: moderate synergy
2 | CC[C@H]1OC(=O)[C@H](C)[C@@H](O[C@H]2C[C@@](C)(OC)[C@@H](O)[C@H](C)O2)[C@H](C)[C@@H](O[C@@H]2O[C@H](C)C[C@H](N(C)C)[C@H]2O)[C@](C)(O)C[C@@H](C)C(=O)[C@H](C)[C@@H](O)[C@]1(C)O [Ery, Erythromycin] | 16 µg/mL | 62 µg/mL | 32 µg/mL | > 250 µg/mL | < 2.5 µg/mL | > 2500 µg/mL | < 2.5 µg/mL | < 2.5 µg/mL | < 2.5 µg/mL | – | – | – | MIC (MRSA USA-300; MRSA USA-300): 31 µg/mL; MIC, single antimicrobial (MRSA ATCC 33591-lux; MRSA ATCC 33591-lux): >250 µg/mL; MIC (MRSA ATCC 33591-lux; MRSA ATCC 33591-lux): > 250 µg/mL; MIC (MRSA 43484; MRSA 43484): 62 µg/mL; MIC of the antimicrobial in comb. with GarKS ([1]; All three strains): 16 to 62 µg/mL; synergy with GarKS [1]: no synergy or only additive effects; MIC (S. aureus LMG3263; [3]): > 2500 µg/mL; MIC (S. aureus LMG3255; [4]): < 2.5 µg/mL; MIC (S. aureus LMG3258): < 2.5 µg/mL; MIC (S. aureus LMG3314): < 2.5 µg/mL; MIC (S. aureus LMG3264; [5]): < 2.5 µg/mL; MIC (S. aureus LMG3242; Staphylococcus aureus, LMG3242, 24 h; read-out: MIC, single component): < 2.5 µg/mL; MIC (S. aureus LMG3266; Staphylococcus aureus, LMG3266, 24 h; read-out: MIC, single component): > 2500 µg/mL; MIC (S. aureus LMG3328): < 2.5 µg/mL
3 | CC(C)=CCCC(C)=CCCC(C)=CCO [Farnesol] | – | – | – | – | – | – | – | – | – | 0.08 µg/mL | 14 µg/mL | 56 µg/mL | –
4 | CC(=O)O[C@H]1C[C@@]2(C)[C@@H](C[C@@H](O)[C@H]3[C@@]4(C)CC[C@@H](O)[C@@H](C)[C@@H]4CC[C@@]32C)/C1=C(\CCC=C(C)C)C(=O)O [Fusidic acid] | – | – | – | 1.25 µg/mL | – | – | – | – | – | 0.15 µg/mL | 0.04 µg/mL | 0.6 µg/mL | –
5 | NC[C@H]1O[C@H](O[C@H]2[C@H](O)[C@@H](O[C@H]3O[C@H](CO)[C@@H](O)[C@H](N)[C@H]3O)[C@H](N)C[C@@H]2N)[C@H](O)[C@@H](O)[C@@H]1O [Kan, Kanamycin] | 32/32 μg/ml | – | 32/32 μg/ml | – | 64 µg/mL | 64 µg/mL | 64 µg/mL | 64 µg/mL | 16 µg/mL | – | – | – | MIC (MRSA USA-300; MRSA): > 125 µg/mL; MIC (MRSA ATCC 33591-lux; MRSA ATCC 33591-lux): > 125 µg/mL; MIC (MRSA 43484; MRSA): > 125 µg/mL; MIC ([2]; MRSP45, 24 h): > 1250 µg/mL; MIC, single antimicrobial ([1]; All three strains): >125 µg/mL; MIC ([1]; All three strains): > 125 µg/mL; MIC (S. aureus LMG3263; Staphylococcus aureus, LMG3263, 24 h, read-out: MIC, single component): > 125 µg/mL; MIC (S. aureus LMG3255; Staphylococcus aureus, LMG3255, 24 h, read-out: MIC, single component): > 125 µg/mL; MIC (S. aureus LMG3258): 125 µg/mL; MIC (S. aureus LMG3314): 64 µg/mL; MIC (S. aureus LMG3264; Staphylococcus aureus, LMG3264, 24 h, read-out: MIC, single component): > 125 µg/mL; MIC (S. aureus LMG3242; Staphylococcus aureus, LMG3242, 24 h, read-out: MIC, single component): > 125 µg/mL; MIC (S. aureus LMG3266; Staphylococcus aureus, LMG3266, 24 h, read-out: MIC, single component): > 125 µg/mL; MIC (S. aureus LMG3328): 32 µg/mL
6 | CN(C)[C@@H]1C(O)=C(C(N)=O)C(=O)[C@@]2(O)C(O)=C3C(=O)c4c(O)cccc4[C@@](C)(O)[C@H]3C[C@@H]12 [Tet, Tetracycline] | 0.6 µg/mL | 38 µg/mL | 0.6 µg/mL | 150 µg/mL | 2.4 µg/mL | 2.4 µg/mL | 0.6 µg/mL | < 0.3 µg/mL | 77 µg/mL | 0.08 µg/mL | 10 µg/mL | 150 µg/mL | MIC (S. aureus LMG3263; [3]): 2.4 µg/mL; MIC (S. aureus LMG3255; [4]): 2.4 µg/mL; MIC (S. aureus LMG3264; [5]): 2.4 µg/mL
7 | C=C(NC(=O)[C@@H](NC(=O)[C@H](Cc1c[nH]cn1)NC(=O)[C@@H](NC(=O)[C@H](CO)NC(=O)[C@@H]1CS[C@@H](C)[C@H]2NC(=O)[C@H](C)NC(=O)[C@H](NC(=O)[C@H](CCCCN)NC(=O)[C@H](CCSC)NC(=O)[C@H](CC(N)=O)NC(=O)[C@@H]3CS[C@@H](C)[C@@H](NC(=O)[C@H](CCCCN)NC(=O)[C@@H]4CS[C@@H](C)[C@@H](NC(=O)[C@@H]5CSC[C@@H](NC(=O)/C(=C/C)NC(=O)[C@@H](N)[C@@H](C)CC)C(=O)N[C@@H]([C@@H](C)CC)C(=O)NC(=C)C(=O)N[C@@H](CC(C)C)C(=O)N5)C(=O)N5CCC[C@H]5C(=O)NCC(=O)N4)C(=O)NCC(=O)N[C@@H](C)C(=O)N[C@@H](CC(C)C)C(=O)N[C@@H](CCSC)C(=O)NCC(=O)N3)[C@H](C)SC[C@H](NC2=O)C(=O)N[C@@H](CC(N)=O)C(=O)N1)[C@@H](C)CC)C(C)C)C(=O)N[C@@H](CCCCN)C(=O)O [nisinZ] | – | – | – | – | – | – | – | – | – | 0.3 µg/mL | 0.8 µg/mL | – | MIC, single antimicrobial (MRSA ATCC 33591): >12.5 µg/mL
8 | MIKKFPNPYTLAAKLTTYEINWYKQQYGRYPWERPVA [EJ97 short] | – | – | – | – | – | – | – | – | – | – | – | – | MIC, single component ([2]; 24 h): >25 µg/mL
